The term MIC denotes the smallest concentration in the dilution series that meets the test's criterion for growth inhibition. By MFC is commonly meant the smallest concentration meeting the test's criterion for killing the fungus. A low value points to greater fungicidal potency. A word on the IC50: it is the point on the concentration scale where inhibition reaches its midpoint.

Assay [1] deals with Candida albicans. Briefly: Antifungal activity against Candida albicans after 24 hrs by broth dilution method. Format: functional. (Dilution methods test growth across graded concentrations, often in twofold steps.)
For assay [2], the system named is Trichophyton mentagrophytes. As to the kind of experiment: Fungicidal activity against Trichophyton mentagrophytes after 24 hrs by broth dilution method. Format: functional.
Assay [3] concerns Trichophyton mentagrophytes. Briefly: Antifungal activity against Trichophyton mentagrophytes after 24 hrs by broth dilution method. Format: functional.
The subject of assay [4] is Aspergillus fumigatus. Briefly: Fungicidal activity against Aspergillus fumigatus after 24 hrs by broth dilution method. The class given is functional.
Assay [5] deals with Cryptococcus neoformans. As to the kind of experiment: Antifungal activity against Cryptococcus neoformans ATCC 90112 after 48 hrs by CLSI-based method. The class given is functional. Particulars: ATCC 90112, 48 h.
Assay [6] relates to Cryptococcus neoformans. As to the kind of experiment: Antifungal activity against Cryptococcus neoformans ATCC 90112 after 48 hrs in presence of AmB by CLSI-based method. The class given is functional. The settings on record: ATCC 90112, 48 h.
The nature of assay [7]: Inhibition of fatty acid synthase in Trichophyton rubrum ATCC MYA3108.
The subject of assay [8] is Trichophyton rubrum. Briefly: Antifungal activity against Trichophyton rubrum deltaTruMDR2 by CLSI-based microdilution method. The class given is functional.
For assay [9], the system named is Trichophyton rubrum. As to the kind of experiment: Antifungal activity against Trichophyton rubrum ATCC MYA3108 by CLSI-based microdilution method. Format: functional.
A short description of assay [10]: Inhibition of fatty acid synthase in Trichophyton rubrum deltaTruMDR2.
Assay [11] deals with Nakaseomyces glabratus. Briefly: Antifungal activity against Candida glabrata 510 by microdilution method. Format: functional.
The test system of assay [12] is Candida albicans. Briefly: Antifungal activity against Candida albicans 498 by microdilution method. The class given is functional.
Assay [13] has as its system Cryptococcus neoformans. As to the kind of experiment: Antifungal activity against Cryptococcus neoformans by microdilution method. The class given is functional.
Assay [14] concerns Candida parapsilosis. As to the kind of experiment: Antifungal activity against Candida parapsilosis 96 by microdilution method. The class given is functional. The settings on record: Lodderomyces parapsilosis.
The test system of assay [15] is Candida tropicalis. As to the kind of experiment: Antifungal activity against Candida tropicalis 166 by microdilution method. The class given is functional.
Assay [16] concerns Nakaseomyces glabratus. Briefly: Antifungal activity against Candida glabrata 531 by microdilution method. Format: functional.
The subject of assay [17] is Nakaseomyces glabratus. Briefly: Antifungal activity against Candida glabrata 587 by microdilution method. The class given is functional.
Assay [18] concerns Nakaseomyces glabratus. As to the kind of experiment: Antifungal activity against Candida glabrata 507 by microdilution method. Format: functional.
Assay [19] has as its system Candida tropicalis. As to the kind of experiment: Antifungal activity against Candida tropicalis CCC 131-2000 after 48 hrs by CLSI-based broth microdilution method. The class given is functional. The settings on record: CCC 131-2000, 48 h.
For assay [20], the system named is Nakaseomyces glabratus. Briefly: Antifungal activity against Candida glabrata 493 by microdilution method. The class given is functional.
For assay [21], the system named is Pichia kudriavzevii. As to the kind of experiment: Antifungal activity against Candida krusei 168 by microdilution method. The class given is functional.
Assay [22] relates to Nakaseomyces glabratus. As to the kind of experiment: Antifungal activity against Candida glabrata 482 by microdilution method. The class given is functional.
The test system of assay [23] is Candida albicans. Briefly: Antifungal activity against Candida albicans ATCC 10231 after 48 hrs by CLSI-based broth microdilution method. The class given is functional. The settings on record: ATCC 10231, 48 h.
In assay [24] the test system is Candida albicans. Briefly: Antifungal activity against Candida albicans 53 by microdilution method. Format: functional.
The test system of assay [25] is Candida albicans. As to the kind of experiment: Antifungal activity against Candida albicans 501 by microdilution method. The class given is functional.
Assay [26] has as its system Candida albicans. As to the kind of experiment: Antifungal activity against Candida albicans ATCC 10231 by microdilution method. Format: functional.
For assay [27], the system named is Candida tropicalis. As to the kind of experiment: Synergistic antifungal activity against FLC-resistant Candida tropicalis 2718 after 24 to 72 hrs by checkerboard microbroth dilution method. Format: functional.
Assay [28] has as its system Candida parapsilosis. Briefly: Synergistic antifungal activity against FLC-resistant Candida parapsilosis ATCC 22019 after 24 to 72 hrs in presence of FLC by checkerboard microbroth dilution method. Particulars: Lodderomyces parapsilosis. Format: functional.
The subject of assay [29] is Pichia kudriavzevii. Briefly: Synergistic antifungal activity against FLC-resistant Candida krusei ATCC2340 after 24 to 72 hrs in presence of FLC by checkerboard microbroth dilution method. The class given is functional.
The subject of assay [30] is Candida albicans. As to the kind of experiment: Synergistic antifungal activity against FLC-resistant Candida albicans after 24 to 72 hrs by checkerboard microbroth dilution method. Format: functional.
The test system of assay [31] is Nakaseomyces glabratus. Briefly: Synergistic antifungal activity against FLC-resistant Candida glabrata ATCC1182 after 24 to 72 hrs in presence of FLC by checkerboard microbroth dilution method. Format: functional.
Assay [32] relates to Pichia kudriavzevii. Briefly: Synergistic antifungal activity against FLC-resistant Candida krusei ATCC2340 after 24 to 72 hrs by checkerboard microbroth dilution method. The class given is functional.
Assay [33] has as its system Candida parapsilosis. As to the kind of experiment: Synergistic antifungal activity against FLC-resistant Candida parapsilosis ATCC 22019 after 24 to 72 hrs by checkerboard microbroth dilution method. Format: functional. Particulars: Lodderomyces parapsilosis.
The subject of assay [34] is Cryptococcus neoformans. As to the kind of experiment: Synergistic antifungal activity against FLC-resistant Cryptococcus neoformans 32609 after 24 to 72 hrs in presence of FLC by checkerboard microbroth dilution method. The class given is functional.
The subject of assay [35] is Nakaseomyces glabratus. As to the kind of experiment: Synergistic antifungal activity against FLC-resistant Candida glabrata ATCC1182 after 24 to 72 hrs by checkerboard microbroth dilution method. The class given is functional.
Assay [36] deals with Candida albicans. As to the kind of experiment: Synergistic antifungal activity against FLC-resistant Candida albicans after 24 to 72 hrs in presence of FLC by checkerboard microbroth dilution method. The class given is functional.
For assay [37], the system named is Candida tropicalis. As to the kind of experiment: Synergistic antifungal activity against FLC-resistant Candida tropicalis 2718 after 24 to 72 hrs in presence of FLC by checkerboard microbroth dilution method. Format: functional.
Assay [38] deals with Cryptococcus neoformans. Briefly: Synergistic antifungal activity against FLC-resistant Cryptococcus neoformans 32609 after 24 to 72 hrs by checkerboard microbroth dilution method. The class given is functional.
Assay [39] concerns Trichosporon beigelii. As to the kind of experiment: Antifungal activity against Trichosporon beigelii KCTC 7707 by ELISA. Format: functional.
The test system of assay [40] is Candida parapsilosis. As to the kind of experiment: Antifungal activity against Candida parapsilosis ATCC 22019 by ELISA. Particulars: Lodderomyces parapsilosis. The class given is functional.
The test system of assay [41] is Malassezia furfur. Briefly: Antifungal activity against Malassezia furfur KCTC 7744 by ELISA. The class given is functional. Background: An ELISA detects its analyte on a solid surface through an enzyme-linked reagent.
For assay [42], the system named is Candida albicans. Briefly: Antifungal activity against Candida albicans ATCC 90028 by ELISA. Format: functional.
Assay [43] concerns Trichophyton rubrum. As to the kind of experiment: Antifungal activity against Trichophyton rubrum KCTC 6345 by ELISA. Format: functional.

≈ marks a conversion by molar mass, not a printed value.

As to `O=C1NC(=O)C(C(=O)/C=C/c2coc3ccccc3c2=O)C(=O)N1`, the minimal inhibitory concentration (MIC) in assay [1] and in assay [3] was 12.5 µg/mL (≈ 38.3 µM) in each case. Besides, the minimum fungicidal concentration (MFC) in [2] and in assay [4] was 50 µg/mL (≈ 153 µM) throughout.

As for `COc1cc2oc(-c3ccc(O)c(O)c3)cc(=O)c2c(O)c1O`, the MIC in assay [5] was determined as 3.9 µg/mL (≈ 12.3 µM); in assay [6] it was 1 µg/mL.

For `O=C(/C=C/c1ccccc1)c1ccccc1` [CHALCONE], the IC50 amounted to 68.23 µg/mL (≈ 328 µM) in assay [7] and 17.1 µg/mL (≈ 82.1 µM) in assay [10]. Moreover, the MIC in assay [8] was 1.9 µg/mL (≈ 9.12 µM); in assay [9], 7.5 µg/mL (≈ 36 µM).

As to `O=c1c(O)c(-c2ccccc2)oc2cc(O)cc(O)c12` [GALANGIN], the minimal inhibitory concentration (MIC) in [11] is 15.6 to 62.5 µg/mL (≈ 57.7 to 231 µM); in assay [8], above 1000 µg/mL; in [12], above 83 µg/mL; in [13], 31.2 µg/mL (≈ 115 µM); in [14], above 83 µg/mL; in assay [15], above 83 µg/mL. The MIC was 15.6 to 62.5 µg/mL (≈ 57.7 to 231 µM) in [16]; 15.6 to 62.5 µg/mL (≈ 57.7 to 231 µM) in assay [17]; above 1000 µg/mL in [9]; 15.6 to 62.5 µg/mL (≈ 57.7 to 231 µM) in [18]; 31.2 µg/mL (≈ 115 µM) in [19]; 15.6 to 62.5 µg/mL (≈ 57.7 to 231 µM) in assay [20]. For the same compound, the MIC was above 83 µg/mL in assay [21]; 15.6 to 62.5 µg/mL (≈ 57.7 to 231 µM) in [22]; 31.2 µg/mL (≈ 115 µM) in [23]; above 83 µg/mL in assay [24]; above 83 µg/mL in assay [25]; above 83 µg/mL in assay [26].

As to `CC1(C)C=Cc2c(ccc3c2OC[C@@H](c2ccc(O)cc2O)C3)O1` [GLABRIDIN], the MIC is 64 µg/mL in assay [27]; 1 to 16 µg/mL in [28]; 1 to 16 µg/mL in assay [29]; 32 µg/mL in assay [30]; 1 to 16 µg/mL in assay [31]; 16 to 64 µg/mL in assay [32]. The MIC in assay [33] was 64 µg/mL; in assay [34], 16 to 64 µg/mL; in [35] it was 64 µg/mL; in assay [36], 64 µg/mL; in assay [37], 1 to 16 µg/mL; in [38] it was 16 µg/mL.

Consider `O=c1c(O[C@@H]2O[C@H](CO)[C@@H](O)[C@H](O)[C@H]2O)c(-c2ccc(O)c(O)c2)oc2cc(O)cc(O)c12` [ISOQUERCETIN], for which the minimum inhibitory concentration (MIC) in assay [39] is 5 µg/mL (≈ 10.8 µM); in [40], 2.5 µg/mL (≈ 5.38 µM); in [41], 2.5 to 5 µg/mL (≈ 5.38 to 10.8 µM); in [42] it was 2.5 µg/mL (≈ 5.38 µM); in assay [43], 2.5 µg/mL (≈ 5.38 µM).

The record behind these values is ChEMBL document CHEMBL4311957, “Recent advances in natural antifungal flavonoids and their derivatives” (Bioorg Med Chem Lett, 2019).
